Test results taken from ChEMBL document CHEMBL1139192, “Novel bis(indolyl)maleimide pyridinophanes that are potent, selective inhibitors of glycogen synthase kinase-3” (Bioorg Med Chem Lett, 2007).
The source made the active and inactive calls. The rule behind the calls is not given here.

Assays:
[1] = biological target: Ribosomal protein S6 kinase alpha-5 (Homo sapiens, UniProt O75582); assay: Inhibition of human MSK1
[2] = biological target: T1, BDNF/NT-3 growth factors receptor (Homo sapiens, UniProt Q16620); assay: Inhibition of human TrkB at 1 uM relative to control
Target sequence in this assay (Q16620 32-822 limits assumed): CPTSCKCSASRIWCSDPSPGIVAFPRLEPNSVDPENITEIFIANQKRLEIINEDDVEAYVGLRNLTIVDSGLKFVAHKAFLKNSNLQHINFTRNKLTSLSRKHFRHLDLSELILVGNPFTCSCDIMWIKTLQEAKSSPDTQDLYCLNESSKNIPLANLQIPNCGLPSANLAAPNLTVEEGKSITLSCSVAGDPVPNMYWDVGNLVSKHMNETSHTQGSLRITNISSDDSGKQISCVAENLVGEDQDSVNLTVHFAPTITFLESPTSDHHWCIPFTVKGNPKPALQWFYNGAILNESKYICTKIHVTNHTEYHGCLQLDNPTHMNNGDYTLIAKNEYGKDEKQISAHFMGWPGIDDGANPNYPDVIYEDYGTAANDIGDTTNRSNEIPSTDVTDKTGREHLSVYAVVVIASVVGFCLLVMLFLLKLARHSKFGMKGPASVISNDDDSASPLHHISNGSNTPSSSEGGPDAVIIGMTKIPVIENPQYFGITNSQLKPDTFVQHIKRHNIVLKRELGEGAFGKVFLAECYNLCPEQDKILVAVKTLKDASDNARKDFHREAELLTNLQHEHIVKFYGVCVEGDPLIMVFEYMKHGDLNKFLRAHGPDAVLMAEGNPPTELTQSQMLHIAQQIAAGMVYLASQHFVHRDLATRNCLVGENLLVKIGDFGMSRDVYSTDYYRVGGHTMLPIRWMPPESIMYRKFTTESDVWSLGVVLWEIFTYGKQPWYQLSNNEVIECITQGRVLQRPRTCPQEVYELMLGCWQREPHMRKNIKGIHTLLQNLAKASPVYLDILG

[3] = biological target: Ribosomal protein S6 kinase alpha-1 (Homo sapiens, UniProt Q15418); assay: Inhibition of human Rsk1
[4] = biological target: T1, BDNF/NT-3 growth factors receptor; assay: Inhibition of human TrkB
Target sequence in this assay (Q16620 whole entry): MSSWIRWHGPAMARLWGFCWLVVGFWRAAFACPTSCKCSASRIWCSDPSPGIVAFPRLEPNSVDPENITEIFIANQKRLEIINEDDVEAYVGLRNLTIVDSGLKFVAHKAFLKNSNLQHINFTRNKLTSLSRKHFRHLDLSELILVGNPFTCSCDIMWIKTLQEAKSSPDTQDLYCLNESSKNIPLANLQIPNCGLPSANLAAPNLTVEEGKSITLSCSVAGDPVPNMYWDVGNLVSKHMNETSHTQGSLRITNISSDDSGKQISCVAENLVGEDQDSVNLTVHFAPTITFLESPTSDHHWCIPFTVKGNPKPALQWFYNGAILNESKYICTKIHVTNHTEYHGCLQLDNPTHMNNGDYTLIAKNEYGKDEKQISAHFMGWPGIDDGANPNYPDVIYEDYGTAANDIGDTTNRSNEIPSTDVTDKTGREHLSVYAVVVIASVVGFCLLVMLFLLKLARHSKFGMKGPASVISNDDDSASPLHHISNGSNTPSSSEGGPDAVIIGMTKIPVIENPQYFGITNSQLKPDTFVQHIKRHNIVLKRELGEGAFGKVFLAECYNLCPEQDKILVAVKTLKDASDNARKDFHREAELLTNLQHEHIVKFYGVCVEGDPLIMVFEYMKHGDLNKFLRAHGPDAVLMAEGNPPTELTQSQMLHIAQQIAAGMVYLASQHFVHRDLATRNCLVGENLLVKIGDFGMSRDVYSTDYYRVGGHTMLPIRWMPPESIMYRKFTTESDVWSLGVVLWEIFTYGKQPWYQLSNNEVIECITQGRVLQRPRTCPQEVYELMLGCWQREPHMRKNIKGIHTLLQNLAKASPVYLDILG

[5] = biological target: Cytoplasmic tyrosine-protein kinase BMX (Homo sapiens) (UniProt P51813); assay: Inhibition of human BMX kinase at 1 uM relative to control; values are per cent of control
Chain of Cytoplasmic tyrosine-protein kinase BMX (Homo sapiens) (P51813 whole entry): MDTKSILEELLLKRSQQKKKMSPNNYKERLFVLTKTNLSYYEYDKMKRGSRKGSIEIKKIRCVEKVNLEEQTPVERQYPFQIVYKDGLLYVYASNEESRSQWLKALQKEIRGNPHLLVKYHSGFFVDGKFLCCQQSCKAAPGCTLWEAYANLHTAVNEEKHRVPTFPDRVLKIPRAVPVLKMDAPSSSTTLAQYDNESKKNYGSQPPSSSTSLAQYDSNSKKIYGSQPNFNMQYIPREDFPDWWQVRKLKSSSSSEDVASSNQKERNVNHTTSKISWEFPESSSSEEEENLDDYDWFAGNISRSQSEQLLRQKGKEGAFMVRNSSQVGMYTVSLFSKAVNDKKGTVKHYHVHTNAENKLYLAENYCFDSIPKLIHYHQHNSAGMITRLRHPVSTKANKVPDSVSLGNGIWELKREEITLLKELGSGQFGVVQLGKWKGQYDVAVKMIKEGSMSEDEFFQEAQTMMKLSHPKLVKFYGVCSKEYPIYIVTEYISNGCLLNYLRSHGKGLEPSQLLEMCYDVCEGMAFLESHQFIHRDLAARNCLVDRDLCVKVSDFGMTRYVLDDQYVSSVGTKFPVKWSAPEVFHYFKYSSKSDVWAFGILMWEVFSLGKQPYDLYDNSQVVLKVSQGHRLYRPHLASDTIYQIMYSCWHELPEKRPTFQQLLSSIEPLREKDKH

Chain of Ribosomal protein S6 kinase alpha-5 (O75582 whole entry): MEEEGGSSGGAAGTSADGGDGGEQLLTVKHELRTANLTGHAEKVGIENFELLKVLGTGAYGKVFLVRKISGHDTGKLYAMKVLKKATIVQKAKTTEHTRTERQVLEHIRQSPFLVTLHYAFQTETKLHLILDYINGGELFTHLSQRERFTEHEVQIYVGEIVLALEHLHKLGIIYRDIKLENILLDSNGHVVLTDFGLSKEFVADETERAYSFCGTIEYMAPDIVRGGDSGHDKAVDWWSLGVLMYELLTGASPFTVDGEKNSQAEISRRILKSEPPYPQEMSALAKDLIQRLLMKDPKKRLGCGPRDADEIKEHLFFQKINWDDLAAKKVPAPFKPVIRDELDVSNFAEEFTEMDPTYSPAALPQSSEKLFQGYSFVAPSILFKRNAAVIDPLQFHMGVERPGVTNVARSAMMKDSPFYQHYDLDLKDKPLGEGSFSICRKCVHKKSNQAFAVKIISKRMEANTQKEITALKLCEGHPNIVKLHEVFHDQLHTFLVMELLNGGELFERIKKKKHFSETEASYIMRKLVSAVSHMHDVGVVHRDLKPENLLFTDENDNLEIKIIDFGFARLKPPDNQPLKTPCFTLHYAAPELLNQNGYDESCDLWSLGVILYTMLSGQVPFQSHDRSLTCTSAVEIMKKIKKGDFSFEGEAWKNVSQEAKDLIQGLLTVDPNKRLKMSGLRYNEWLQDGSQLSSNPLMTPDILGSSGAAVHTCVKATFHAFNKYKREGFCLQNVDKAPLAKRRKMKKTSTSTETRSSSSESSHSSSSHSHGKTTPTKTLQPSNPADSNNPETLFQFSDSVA
Chain of Ribosomal protein S6 kinase alpha-1 (Q15418 whole entry): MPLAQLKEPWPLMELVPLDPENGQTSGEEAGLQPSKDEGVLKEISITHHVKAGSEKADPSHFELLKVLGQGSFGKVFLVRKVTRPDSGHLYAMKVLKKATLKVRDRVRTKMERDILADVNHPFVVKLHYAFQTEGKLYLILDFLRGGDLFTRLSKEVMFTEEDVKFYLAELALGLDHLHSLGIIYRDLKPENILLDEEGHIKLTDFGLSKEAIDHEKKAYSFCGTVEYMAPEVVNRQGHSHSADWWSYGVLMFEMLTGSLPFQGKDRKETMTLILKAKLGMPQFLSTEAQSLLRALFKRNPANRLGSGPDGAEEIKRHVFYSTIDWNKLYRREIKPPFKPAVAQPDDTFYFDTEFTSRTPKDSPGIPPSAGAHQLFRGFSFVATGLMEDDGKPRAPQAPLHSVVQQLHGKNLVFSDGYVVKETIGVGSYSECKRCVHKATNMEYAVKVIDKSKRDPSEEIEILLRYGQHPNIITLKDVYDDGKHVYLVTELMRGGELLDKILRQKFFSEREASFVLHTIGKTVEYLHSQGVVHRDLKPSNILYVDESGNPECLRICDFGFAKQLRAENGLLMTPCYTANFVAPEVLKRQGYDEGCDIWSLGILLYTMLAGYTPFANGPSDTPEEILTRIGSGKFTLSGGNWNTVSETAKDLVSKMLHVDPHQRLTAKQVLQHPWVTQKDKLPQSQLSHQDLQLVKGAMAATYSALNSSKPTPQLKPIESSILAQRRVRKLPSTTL

IC50 [1]: 510 nM
Activity [2]: inactive
IC50 [3]: 1900 nM
IC50 [4]: > 3000 nM
residual activity [5]: 101%
SMILES: CN(C)c1nc2ccc1CCCn1cc(c3ccccc31)C1=C(C(=O)NC1=O)c1cn(c3ccccc13)CC2
